Results: patent US20160361311A1, “LIGANDS THAT TARGET HEPATITIS C VIRUS E2 PROTEIN” (AMERICAN UNIVERSITY OF CAIRO, priority 2014, published 2016)
Like-named read-outs stand apart in the source and are kept apart here.

How the values were obtained:
[1] = molecular target: T1, recombinant E2 protein (Hepatitis C virus genotype 1b, UniProt Q9WMX2); assay: Surface plasmon resonance (Biacore T100) binding to recombinant E2 immobilized on CM5 chip; details: for Binding (RU): 200 μM ligand in PBS, 3 min association; for rate of ligand dissociation (in words): compared to the other ligands; for Dissociation 1 (RU): response remaining 10 sec after rinsing with buffer; for Dissociation 2 (RU): response remaining 50 sec after rinsing with buffer
T1 construct: encoding amino acids 384-656 of the Con1 envelope protein 2 ectodomain (eE2); made in house; host or cells: HEK293T cells (lentiviral, secreted)
T1 sequence (Q9WMX2 384-656): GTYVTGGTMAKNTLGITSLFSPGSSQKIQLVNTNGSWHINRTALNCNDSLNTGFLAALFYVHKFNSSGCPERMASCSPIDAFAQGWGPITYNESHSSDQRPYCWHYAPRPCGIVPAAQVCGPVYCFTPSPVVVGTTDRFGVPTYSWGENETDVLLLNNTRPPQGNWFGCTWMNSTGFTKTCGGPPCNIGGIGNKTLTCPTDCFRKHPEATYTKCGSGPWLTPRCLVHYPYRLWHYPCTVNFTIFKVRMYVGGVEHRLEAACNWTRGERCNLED
From the text: A construct containing the sequence encoding amino acids 384-656 of the Con1 envelope protein 2 ectodomain (eE2), a genoptype 1 E2 sequence, was cloned into a lentiviral expression vector with a carboxy-terminal Protein A tag separated by a PreScission Protease cleavage consensus sequence. eE2-ProtA was stably expressed in HEK293T cells using lentiviral infection. The protein was secreted into the media and supernatants were purified using IgG Sepharose (GE Healthcare, Piscataway, N.J.). eE2-ProtA was eluted with 100 mM sodium citrate and 20 mM KCl at pH 3 directly into tubes containing 1M Tris pH 9 for immediate neutralization. PreScission Protease was added to the eluted sample at a ratio of 1:50 (enzyme:eE2), and the digest was then dialyzed into 20 mM HEPES pH 7.5, 250 mM NaCl, 5% glycerol. eE2 was separated from the cleaved tag and the PreScission Protease by ion exchange chromatography.
The set of 34 of the ligands predicted by AutoDock to bind to E2 were tested experimentally to determine if they bind to recombinant E2 protein immobilized on a chip using surface Plasmon resonance. The SPR analyses were performed using a Biacore T100 workstation (GE Healthcare, NJ, USA) and Prot-A-tagged HCV E2 protein. 1 μM ProtA-HCV E2 was diluted into 10 mM sodium acetate buffer pH 5 and immobilized for 15 min at a flow speed of 5 μl/min onto a CM5 sensor chip using amine coupling (EDC-NHS). Approximately 10,000 response units (RU) of protein were immobilized on the chip. His-CD81-LEL (Bioclone-CA/USA) binding to HCV E2 was tested prior to injecting the ligands to confirm the E2 protein was functional and would bind CD81-LEL. In a typical experiment with CD81, […] of his-CD81 in 114 μl PBS was injected into channel 2 and 106.4 RUs of CD81 bound to the E2 on the chip. This was followed by testing the binding of the 34 virtual screening hits where the ligands were prepared as 200 μM solutions in PBS and they were introduced to the protein using a pre-programmed 3 min association and 1 min dissociation interval. The response was measured at two time points during dissociation, 10 and 50 seconds, to obtain information on the rate of ligand dissociation from E2. Twenty-three of the ligands predicted by AutoDock to bind to E2 were observed by SPR to bind to the recombinant protein (Table 2). The measured responses for the ligands that bound varied from 54 to 276 RUs. Data was also obtained on the rate of ligand dissociation by measuring the amount of ligand remaining bound at two time points, dissociation 1 (10 seconds) and dissociation 2 (50 seconds), during the rinsing of the chip with buffer (FIG. 8). The majority of the ligands dissociated quickly, as one might expect for small molecules that bind to the surface of a protein.

[2] = tested on: RD114pp; assay: RD114pp infection of Huh-7 cells (luciferase); format: cell-based, feline endogenous virus RD114; details: read-out: IC50 RD114pp
Method: (§1) Pseudotyped retroviral particles harboring HCV envelope proteins (HCVpp) from different genotypes were produced as described previously. A plasmid encoding the feline endogenous virus RD114 glycoprotein [35] was used for the production of RD114pp. Both HCVpp and RD114pp expressed Firefly luciferase.
(§2) To identify ligands that inhibit HCV infection, Huh-7 cells were seeded in 96-well plates and treated the day after with six different concentrations of each ligand diluted in DMSO in duplicate using a Zephyr automated liquid handling workstation (Caliper BioSciences, Hopkinton, Mass.). The final concentration of DMSO (1%) was adjusted to be the same for all ligand concentrations. Cells treated with DMSO were used as negative controls. Cells treated with different concentrations of anti-CD81 (JS-81 from BD Pharmingen, San Jose, Calif.) 1 hour before infection, were also used as positive controls. The third day, RD114pp, HCVpp or HCVcc were inoculated and incubated for 30 hours at 37° C. Firefly and Gaussia luciferase assays were performed as indicated by the manufacturer (Promega, San Luis Obispo, Calif.).
Pseudotyped retroviral particles harboring the envelope protein of an endogenous feline retrovirus (RD114pp) were first used to determine the specificity and the safety of molecules.

[3] = tested on: HCVpp 2a; assay: HCVpp 2a infection of Huh-7 cells, 96-well (luciferase); format: cell-based, HCV; details: Hepatitis C virus, Huh-7, 30 h, read-out: IC50 HCVpp
Method: as §1, §2
(§3) The remaining ligands were next tested against pseudotyped retroviral particles harboring genotype-2a HCV envelope proteins (HCVpp 2a), cell culture produced HCV particles (HCVcc) or RD114pp. As a positive control, an anti-CD81 antibody was used in parallel.

[4] = tested on: HCVcc; assay: HCVcc infection of Huh-7 cells (Gaussia luciferase); format: cell-based, HCV; details: Hepatitis C virus, Huh-7, 30 h, read-out: IC50 HCVcc
Method: The cell culture-produced HCV particles (HCVcc) used in this study were based on the JFH1 strain [36] and were prepared as described previously. They were engineered to express the A4 epitope, titer-enhancing mutations and Gaussia luciferase.
as §2, §3

[5] = Feline endogenous virus RD114, Huh-7, 30 h

Structure (SMILES) | binding to recombinant E2 protein by SPR (in words) [1] | Binding (RU) [1] [RU] | rate of ligand dissociation (in words) [1] | Dissociation 1 (RU) [1] [RU] | Dissociation 2 (RU) [1] [RU] | IC50 [2, 5] [µM] | IC50 [3] [µM] | IC50 [4] [µM] | IC50 ([2]; Huh-7 cells, 30 hours) [µM]
O=C(O)C[C@H]1OCC=C2CN3CC[C@]45c6ccccc6N[C@H]4[C@H]1[C@H]2C[C@H]35 [Ligand 121861] | bound | 88.4 | slower off rates | 26.1 | 20.4 | > 10 | > 10 | > 10 | –
NC1=N/C(=N\c2ccccc2)N[C@H](c2ccccc2)N1 [Ligand 3076, (4R)-6-N,4-diphenyl-1,4-dihydro-1,3,5-triazine-2,6-diamine] | – | 92.2 | – | 3.2 | 1.6 | 0.25 | – | – | –
Nc1nc(N)nc(-c2ccccc2-c2nc(N)nc(N)n2)n1 [Ligand 4429, 6-[2-(4,6-diamino-1,3,5-triazin-2-yl)phenyl]-1,3,5-triazine-2,4-diamine] | – | 155.3 | slower off rates | 28.9 | 14.2 | > 10 | > 10 | > 10 | –
NC1=N[C@@H](c2ccc(Cl)cc2)N(c2ccc(S(N)(=O)=O)cc2)C(N)=N1 [Ligand 117268] | – | 88.5 | – | 4.1 | 1.2 | 0.1 | > 10 | > 10 | –
Cc1ccc([N+](=O)[O-])cc1NC(=O)Nc1ccc(S(N)(=O)=O)cc1 [Ligand 146554, 1-(2-methyl-5-nitrophenyl)-3-(4-sulfamoylphenyl)urea] | – | 63.4 | – | 3.1 | 0.8 | > 10 | – | – | –
Cc1nc(/N=C(\N)N(C)C)[nH]c(=O)c1C [Ligand 113486, 2-(5,6-dimethyl-4-oxo-1H-pyrimidin-2-yl)-1,1-dimethylguanidine] | – | 104.7 | – | 7 | 2.6 | > 10 | > 10 | > 10 | –
Cc1ccc([N+](=O)[O-])cc1NC(=O)Nc1onc(C)c1C [Ligand 213700, 1-(3,4-dimethyl-1,2-oxazol-5-yl)-3-(2-methyl-5-nitrophenyl)urea] | – | 62 | – | 3.1 | 0.8 | > 10 | > 10 | > 10 | –
O=C1CCCc2cc3c(cc21)CC1(C3)Cc2cc3c(cc2C1)C(=O)CCC3 [Ligand 670283, 2,2′-spirobi[3,6,7,8-tetrahydro-1H-cyclopenta[g]naphthalene]-5,5′-dione] | – | 54.3 | – | 4 | 1.4 | 3 | – | – | –
C1C[C@H]2NCC[C@@H]3NCC[C@H](N1)N32 [Ligand 81462] | – | 57.2 | slower off rates | 9.2 | 6.5 | > 10 | > 10 | > 10 | –
O=C(Nc1cccc([N+](=O)[O-])c1)c1cccc(C(=O)Nc2cccc([N+](=O)[O-])c2)c1 [Ligand 204232] | – | 63.4 | – | 2.5 | 0.4 | > 10 | > 10 | > 10 | –
O=[N+]([O-])c1cc([N+](=O)[O-])c2cccnc2c1O [Ligand 57103] | – | 81.6 | slower off rates | 11.4 | 2.5 | 0.3 | – | – | –
C[C@]12CC[C@@H]3c4ccc(OCC(=O)O)cc4CC[C@H]3[C@@H]1CCC2=O [Ligand 86467, 2-[[(8R,9S,13S,14S)-13-methyl-17-oxo-7,8,9,11,12,14,15,16-octahydro-6H-cyclopenta[a]phenanthren-3-yl]oxy]acetate] | bound | 54.9 | – | 1.9 | 0.8 | > 10 | > 10 | > 10 | –
COc1ccc(C2=C[C@@H](c3ccc(OC)c(OC)c3)c3c(c4ccccc4oc3=O)O2)cc1OC [Ligand 211490, (4S)-2,4-bis(3,4-dimethoxyphenyl)-4H-pyrano[3,2-c]chromen-5-one] | – | 102.9 | – | 6.1 | 2.1 | 0.5 | – | – | –
CC12CCC3C(CCC4Cc5[nH]c6ccccc6c5CC43C)C1CCC2O (stereo not drawn) [Ligand 60785] | – | 70.4 | – | 2.8 | 0.6 | 3.5 | – | – | –
NC(=O)C(=Cc1ccncc1)c1cccc2ccccc12 (stereo in doubt) [Ligand 144694, (E)-2-naphthalen-1-yl-3-pyridin-4-ylprop-2-enamide] | – | 118.8 | – | 6 | 2.3 | > 10 | > 10 | > 10 | –
CC1(C)N=C(N)N=C(N)N1c1ccc(OCCCOc2ccccc2)c(Cl)c1 [Ligand 133071, 3-[3-chloro-4-(3-phenoxypropoxy)phenyl]-4,4-dimethyl-1H-1,3,5-triazin-3-ium-2,6-diamine] | – | 276.3 | – | 1.8 | −2 | 0.1 | – | – | –
CCCc1nc(NC(=O)c2ccccc2)nc(NC(=O)c2ccccc2)n1 [Ligand 359472, N-(4-benzamido-6-propyl-1,3,5-triazin-2-yl)benzamide] | – | 62 | – | 2.5 | 0.8 | > 10 | > 10 | > 10 | –
CC[C@@]1(O)C(=O)OCc2c1cc1n(c2=O)Cc2cc3c(NC(=O)CN)cccc3nc2-1.Cl [Ligand 639174] | – | 55.4 | – | 2.3 | 0.6 | – | – | – | 0.03
O=S(=O)(F)c1ccc2nc(-c3cccc(Sc4ccccc4)c3)cc(Cl)c2c1 [Ligand 158413, 4-chloro-2-(3-phenylsulfanylphenyl) quinoline-6-sulfonyl fluoride] | – | 71.2 | slower off rates | 10.3 | 8.5 | > 10 | > 10 | > 10 | –
